According to patent US12150750B2, “D-glucose and its analogs as tracers to assess the glucose transporter function on blood-cerebrospinal fluid barrier and the functioning of the brain lymphatic system” (The Johns Hopkins University, priority 2020, dated 2024):

Assays:
[1] = Dynamic glucose enhanced (DGE) onVDMP MRI at 11.7 T of glucose uptake in brain parenchyma and CSF of WT and Tau mice; type: in vivo, mouse; conditions: for fitted ADGE (amplitude of glucose uptake at equilibrium) of parenchyma: i.v. bolus 0.15 mL 50% glucose, n=4; for half-life: female, mouse, 0.15 mL of 50% w/w glucose (0.5 g/mL)
Protocol: (§1) The study was carried out under the approval of Johns Hopkins University animal care and use. Four female Tau4RΔK (Tau) mice (49) with an age of 7-8 months and four female age-matched C57BL/6J mice were used for the AD study. Two age-matched BALB/c mice were used for the validation of glucose uptake using an MRS method. The Tau mice were bred at Johns Hopkins University and the onset of tau tangles starts at the age of six months (49). A catheter was placed in the tail vein for glucose administration before placing the animal in the scanner.
All MRI experiments were performed on a horizontal bore 11.7 T Bruker Biospec system (Bruker, Ettlingen, Germany) equipped with actively shielded gradients, with a maximum strength of 74 Gauss/cm. A 72 mm quadrature volume resonator was used as a transmitter and a 2×2 mouse phased array coil for acquisition. All animals were anesthetized using 2% isoflurane in medical air, followed by 1% to 1.5% isoflurane for maintenance during the MRI scan. The mouse head was positioned using a bite bar and two ear pins. During the MRI scan, mice were placed on a water-heated animal bed. Respiratory rate was monitored via a pressure sensor (SAII, Stony Brook, NY, USA) and maintained at 40-60 breaths per minute. The B0 field over the mouse brain was adjusted using field-mapping and second-order shimming.
The MRI sequence used for monitoring the glucose uptake in brain and CSF was onVDMP, illustrated in (a) of FIG. 3. The duration of each binomial pulse pair was 3 ms, and the length of a saturation module was proportional to the total number of binomial pulse pairs. Two independent onVDMP sequences with different saturation-module lengths (i.e. 36 ms and 300 ms) were repeated in an interleaved fashion to detect the glucose uptake in brain parenchyma and CSF, respectively. Other imaging parameters were: TR/TE=2.5 s/5 ms, RARE factor=23, slice thickness=1 mm, a matrix size of 196×128 within a FOV of 20×10 mm^2. The scan time for each onVDMP experiment was fixed to 7.5 s and the dynamic glucose enhanced (DGE) images were acquired continuously for 27.5 min. A bolus of 0.15 mL 50% w/w glucose (0.5 g/mL, clinical-grade dextrose, Hospira, Lake Forest, IL) was given at 10th min of the dynamic experiment through the tail vein using a syringe pump (Harvard Apparatus Holliston, MA, USA). The first five minutes of dynamic scan were used as dummy scans to make sure system reached steady-state.
According to R1ρ theory (50-52), the water signal intensity (S) after applying an onVDMP sequence is expressed in some embodiments as: S=S0e^−T^onvDMP^R^1ρ (1)
where S0 is the water signal intensity without saturation. Because ΔR1ρ induced by glucose infusion is relatively small (41-43,53,54), the normalized change of water signal intensity ΔZ is approximated in some embodiments as: ΔZ=(Sbase−S)/Sbase=1−e^−T^onvDMP^ΔR^1ρ≈TonVDMPΔR1ρ (2)
where Sbase is the referenced water signal intensity. In this study, the average of water signal intensity before glucose infusion was used as Sbase. The dynamic images are calculated in some embodiments by averaging N images within a certain time period (55): Save=Σn=1^NΔZ(n)/N (3)
To correct for motion between DGE images, image registration was applied using Medical Imaging Registration Toolbox (MIRT) (56). The regions of interest (ROIs) were selected by hand with the reference to mouse brain atlas (https://mouse.brain-map.org).
The glucose uptake curves measured by DGE MRI are fitted using exponential functions in some embodiments to allow quantitative comparison: ΔDGE(t)=ADGE(1−e^−t/T^u,DGE) (4)
where ΔDGE(t) is the DGE signal difference determined by onVDMP MRI. Tu,DGE is the glucose uptake lifetime. The half-life time of glucose uptake was calculated by the equation: Thalf=Tu*0.6931. ADGE represents the amplitudes of glucose uptake at equilibrium measured by onVDMP. […]

[2] = Validation of glucose uptake in brain using an MRS method; type: in vivo; conditions: mouse, intravenous, BALB/c mice, read-out: half-life time of glucose uptake measured by MRS
Protocol: as §1

[3] = DGE onVDMP MRI at 3 T of D-glucose uptake and clearance in CSF of WT and APP/PS1 mice; type: in vivo, mouse; conditions: for ΔS at 2 min (CSF DGE signal difference) / ΔS at 30 min (CSF DGE signal difference): n=5
From the text: All animal experiments were approved by the Animal Ethics Committee and followed the institutional guidelines of Institutional Laboratory Animal Research Unit of City University of Hong Kong. […] APP/PS1 mice are double transgenic mice expressing a chimeric mouse/human amyloid precursor protein (Mo/HuAPP695swe) and a mutant human presenilin 1 (PS1-dE9), both directed to CNS neurons. Both mutations are associated with early-onset AD. Another six 6M WT mice were used for the control experiments.
The onVDMP sequence diagram is shown in (a) of FIG. 3. By setting a different binomial pulse number N, the saturation length is adjusted to image the parenchyma and CSF, respectively. In this study, the saturation length was set to 60 ms for imaging parenchyma and 900 ms for imaging CSF. DGE experiments on both parenchyma and CSF images are acquired in an alternate way in some embodiments during one acquisition, similar to the experiments in example 1.
When carrying out the MRI experiments on mice, anesthesia was induced and maintained using isoflurane at 2% and 1.5%, respectively. The isoflurane was mixed with 90% oxygen generated by an oxygen concentrator. The flow rate of oxygen generator was set to 2 liter per minute (LPM) and kept unchanged during the whole experiment. Mice were placed in a horizontal bore 3 T Bruker BioSpec animal scanner (Bruker, Germany). A 82-mm-diameter quadrature coil and a 23-mm-diameter mouse brain surface coil were used for transmitting and receiving signal, respectively. A catheter was placed in the tail vein for glucose administration before placing the animal in the scanner. A bolus of 0.15 mL filtered 50% D-glucose was injected into the mouse body through the tail vein over one minute (speed: 0.15 ml/min) using a MRI-compatible syringe pump (Harvard Apparatus). Mouse body temperature was maintained at 37° C. using a warming pad. Respiration and body temperature were continuously monitored using an MRI-compatible monitor system (SA Instruments, Inc). Before DGE acquisition, the B0 field over the mouse brain was shimmed using field-mapping and second-order shimming. The read-out module was rapid acquisition with refocused echoes (RARE) with TR/TE=2.5 s/4.7 ms, RARE factor=32, centric encoding, slice thickness=2 mm, a matrix size of 96×96 within a field of view (FOV) of 20×20 mm^2, resulting in a time resolution of 15 s for each pair of images (7.5 s for parenchyma and 7.5 s for CSF). A total number of 550 images were acquire for each DGE module, thus leading to a total scanning time of 1 h8 min 45 s. The glucose injection was started at 8 min 45 s and lasted for 1 min. […] The image slice was positioned based on a collected sagittal image of the mouse brain with the position of the coronal image slice set to −1.4 mm with respect to the anterior commissure (AC).
All image processing and data analyses were performed using custom written code in MATLAB (R2018b, MathWorks, USA). When calculating DGE kinetic curves, baseline signal Sbase was generated by averaging the 30 baseline images. Since the total number of DGE images was large ([…] for each mouse), every set of 15 images were averaged to visualize the dynamic process of glucose changes. Then Eq. 5 was used for each time point to construct the DGE kinetic curves after glucose administration.
The DGE data of CSF were fitted by a simple gamma variate model(66,67) for only the first 20 mins after glucose injection, giving an uptake rate and an estimate of the initial rate of clearance:
where A is an amplitude modulation parameter, μin represents the glucose uptake rate, μout represents the initial rate of clearance. […] The maximum signal that CSF DGE reached is directly extracted in some embodiments after fitting as Smax=max(ΔS′CSF(t)). For both parenchymal and CSF DGE curves, fitting was achieved using the built-in nonlinear least-squares curve fitting function in MATLAB. […]

[4] = literature reference 28; cited from earlier work

For `O=C[C@H](O)[C@@H](O)[C@H](O)[C@H](O)CO` [D-glucose], the “fitted ADGE (amplitude of glucose uptake at equilibrium) of parenchyma” value ([1]; Tau4RΔK mice, cortex) was 1.70±1.33%, the “CSF ADGE” value ([1]; Tau mice, CSF) was 6.72±2.22% and the “time at which DGE signal reached a plateau” value ([1]; Tau mice, CSF) was “around 25 min”. The “glucose uptake in the cortex (DGE signal intensity)” value ([1]; Tau mice, cortex) was 1.6±1.3%, the “fitted ADGE (amplitude of glucose uptake at equilibrium) of parenchyma” value ([1]; WT mice (C57BL/6J), cortex) was 5.42±0.70% and the “CSF ADGE” value ([1]; WT mice, CSF) was 7.03±2.12%. The “drop of DGE signal from the peak value at 27.5 minutes” value ([1]; WT mice, CSF) was “about 1.5±0.5%”, the “peak value of DGE signal” value ([1]; WT mice, CSF) was 6±0.3% and the “time at which DGE signal plateaued” value ([1]; WT mice, CSF) was “around 10 min”. For the same compound, the “time at which DGE signal reaches a maximum before decay” value ([1]; WT mice, CSF) was “around 15 minutes”, the “glucose uptake in the cortex (DGE signal intensity)” value ([1]; WT mice, cortex) was 4.3±1.3% and the half-life ([1]; C57BL/6J, brain parenchyma (cortex), iv, WT mice, cortex, read-out: uptake half-life time of parenchyma) was 4.71 ± 1.03 min. The half-life ([1]; C57BL/6J, intravenous, brain tissue of WT mice, as restated in discussion, read-out: half-life time of glucose uptake obtained by the onVDMP method) was 4.71 ± 1.18 min, the half-life ([1]; C57BL/6J, iv, WT mice, CSF, read-out: uptake half-life time of CSF) was 1.24 ± 0.24 min and the half-life ([1]; Tau4RΔK, brain parenchyma (cortex), iv, Tau mice, cortex, read-out: uptake half-life time of parenchyma) was 5.14 ± 0.3 min. The half-life ([1]; Tau4RΔK, iv, Tau mice, CSF, read-out: uptake half-life time of CSF) was 7.8 ± 1.14 min, the “time at which glucose uptake reaches a plateau” value ([1]; parenchymal ROI (cortex), both WT and Tau mice) was “about 20 min” and the half-life [2] was 4.16 ± 0.69 min. For the same compound, the “ΔS at 2 min (CSF DGE signal difference)” value ([3]; APP/PS1 mice 6M) was 12.70±2.30%, the “ΔS at 30 min (CSF DGE signal difference)” value ([3]; APP/PS1 mice 6M) was 11.84±4.13% and the “ΔS at 2 min (CSF DGE signal difference)” value ([3]; WT mice 6M, i.v. bolus 0.15 mL 50% D-glucose) was 14.56±2.86%. The “ΔS at 30 min (CSF DGE signal difference)” value ([3]; WT mice 6M) was 3.18±2.95%, the “D-glucose uptake rate μin, WT versus APP/PS1” value ([3]; mouse, in vivo) was “no significant difference” and the “Smax (maximum CSF DGE signal), APP/PS1 versus WT” value ([3]; mouse, in vivo) was “significantly lower”. For the same compound, the “washout initial rate μout of D-glucose in CSF, APP/PS1 compared to WT” value ([3]; mouse, in vivo) was “significantly slower” and the “half-life time of glucose uptake, previous 13C MRS measurements” value [4] was 5.10 ± 0.11 min.
